Experiments:
[1] = molecular target: EGFR (Homo sapiens, UniProt P00533); type: biochemical; settings: test concentration not given; conclusion says EGFR in A549 cancer cells
[2] = tested on: A549 lung cancer cells; assay: cells; settings: Homo sapiens, A549, read-out: IC50 on A549

Chain of EGFR (P00533 25-1210): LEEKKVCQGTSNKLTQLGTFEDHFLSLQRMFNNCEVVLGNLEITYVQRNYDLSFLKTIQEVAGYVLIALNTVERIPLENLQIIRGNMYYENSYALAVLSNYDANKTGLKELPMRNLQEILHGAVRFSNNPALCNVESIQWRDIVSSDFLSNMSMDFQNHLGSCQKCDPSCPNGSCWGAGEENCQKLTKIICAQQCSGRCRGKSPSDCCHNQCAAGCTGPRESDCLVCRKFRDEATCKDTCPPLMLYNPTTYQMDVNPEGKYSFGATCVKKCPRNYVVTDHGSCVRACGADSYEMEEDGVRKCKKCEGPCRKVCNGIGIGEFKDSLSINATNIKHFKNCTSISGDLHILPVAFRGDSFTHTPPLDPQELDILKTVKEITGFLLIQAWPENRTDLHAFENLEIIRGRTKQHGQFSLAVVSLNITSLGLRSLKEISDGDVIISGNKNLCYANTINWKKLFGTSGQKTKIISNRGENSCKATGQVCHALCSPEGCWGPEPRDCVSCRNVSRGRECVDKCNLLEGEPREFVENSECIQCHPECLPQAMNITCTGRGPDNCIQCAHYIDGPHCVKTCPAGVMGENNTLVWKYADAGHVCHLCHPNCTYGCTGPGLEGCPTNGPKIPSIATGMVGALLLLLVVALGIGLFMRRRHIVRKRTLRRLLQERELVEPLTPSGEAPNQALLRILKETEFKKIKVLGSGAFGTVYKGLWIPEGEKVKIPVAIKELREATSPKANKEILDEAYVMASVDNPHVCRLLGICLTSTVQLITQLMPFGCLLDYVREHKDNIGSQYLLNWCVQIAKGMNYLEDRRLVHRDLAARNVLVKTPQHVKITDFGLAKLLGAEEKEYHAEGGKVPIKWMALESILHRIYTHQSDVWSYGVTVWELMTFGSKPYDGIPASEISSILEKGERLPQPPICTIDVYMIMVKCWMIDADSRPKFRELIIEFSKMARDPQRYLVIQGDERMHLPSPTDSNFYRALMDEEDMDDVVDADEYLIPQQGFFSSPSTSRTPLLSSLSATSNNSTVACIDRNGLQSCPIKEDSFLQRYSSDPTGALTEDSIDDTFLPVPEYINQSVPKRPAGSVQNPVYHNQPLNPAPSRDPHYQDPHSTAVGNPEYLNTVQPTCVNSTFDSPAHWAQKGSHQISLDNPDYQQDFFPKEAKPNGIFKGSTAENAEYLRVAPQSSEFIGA

NS(=O)(=O)c1ccc(-n2c(SCC(=O)Nc3ccccc3)nc3cc4ccccc4cc3c2=O)cc1 [Compound 5, 2-(4-Oxo-3-(4-sulfamoylphenyl)-3,4-dihydrobenzo[g]quinazolin-2-ylthio)-N-phenylacetamide]
% inhibition of EGFR [1]: 55.58% | IC50 [2]: 1017 ± 10 nM

Cc1ccccc1NC(=O)CSc1nc2cc3ccccc3cc2c(=O)n1-c1ccc(S(N)(=O)=O)cc1 [Compound 6, 2-(4-Oxo-3-(4-sulfamoylphenyl)-3,4-dihydrobenzo[g]quinazolin-2-ylthio)-N-o-tolylacetamide]
% inhibition of EGFR [1]: 84.31% | IC50 [2]: 105 ± 12 nM

Cc1cccc(NC(=O)CSc2nc3cc4ccccc4cc3c(=O)n2-c2ccc(S(N)(=O)=O)cc2)c1 [Compound 7, 2-(4-Oxo-3-(4-sulfamoylphenyl)-3,4-dihydrobenzo[g]quinazolin-2-ylthio)-N-m-tolylacetamide]
% inhibition of EGFR [1]: 66.85% | IC50 [2]: 1271 ± 2 nM

Cc1ccc(NC(=O)CSc2nc3cc4ccccc4cc3c(=O)n2-c2ccc(S(N)(=O)=O)cc2)cc1 [Compound 8, 2-(4-Oxo-3-(4-sulfamoylphenyl)-3,4-dihydrobenzo[g]quinazolin-2-ylthio)-N-p-tolylacetamide]
% inhibition of EGFR [1]: 90.21% | IC50 [2]: 220 ± 120 nM

COc1cc(NC(=O)CSc2nc3cc4ccccc4cc3c(=O)n2-c2ccc(S(N)(=O)=O)cc2)cc(OC)c1OC [Compound 15, 2-(4-Oxo-3-(4-sulfamoylphenyl)-3,4-dihydrobenzo[g]quinazolin-2-ylthio)-N-(3,4,5-trimethoxyphenyl)acetamide]
% inhibition of EGFR [1]: 58.04% | IC50 [2]: 545 ± 3 nM

C#Cc1cccc(Nc2ncnc3cc(OCCOC)c(OCCOC)cc23)c1 [Erlotinib, reference compound]
IC50 [2]: 727 ± 8 nM
